We go through 6 molecules from article PMC8999917, “Structure–Activity Relationship of Synthetic Ginkgolic Acid Analogs for Treating Type 2 Diabetes by PTPN9 Inhibition” (International Journal of Molecular Sciences, 2022).

Assay [1] has as its target T1, PTPN9 (Homo sapiens, UniProt P43378).
T1 construct: made in house; host or cells: Escherichia coli Rosetta (DE3)
T1 sequence (P43378 277-581): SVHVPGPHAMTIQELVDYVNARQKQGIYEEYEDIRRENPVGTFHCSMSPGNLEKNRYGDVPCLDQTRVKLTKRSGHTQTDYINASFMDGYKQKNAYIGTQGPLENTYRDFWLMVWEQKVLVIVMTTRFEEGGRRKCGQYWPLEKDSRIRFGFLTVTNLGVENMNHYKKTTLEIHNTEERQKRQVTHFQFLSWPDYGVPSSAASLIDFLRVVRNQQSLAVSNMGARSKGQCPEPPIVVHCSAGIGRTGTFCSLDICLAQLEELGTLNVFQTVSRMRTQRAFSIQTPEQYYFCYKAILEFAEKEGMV
The assay is described as follows: PTPN9 enzyme inhibition with DiFMUP substrate. The assay is classed as biochemical. As to conditions: DiFMUP 220 µM, PTPN9 0.15 nM; NA: no activity. As to the method: (§1) The purification and kinetic analyses of PTPN9 and DUSP9 (Ser277–581) were performed following methods described in the literature, with slight modifications. PAGE analysis data and enzyme kinetic constants are presented in Figure S1 and Table S1, respectively. Enzyme activity in the presence or absence of the compounds was measured using DiFMUP, a representative PTP fluorogenic substrate. First, the inhibitory effects of compounds 1–3 were evaluated using 50 µM PTPN9 and 20 µM DUSP9. There was an increase in the inhibitory activity of compound 1 for both enzymes as the number of CH2 units increased from 9 to 14 (Figure 2A,B).
(§2) Next, the IC50 values of the compounds, which induce a 50% inhibition of DiFMUP hydrolytic enzyme activity, were determined (Table 1). The IC50 values were determined from the dose–response enzyme inhibition curves of each compound. The dose–response curves for compounds 1e and 1f against PTPN9 and DUSP9, respectively, are presented in Figure 2C,D. Dose–response curves were also obtained for the other compounds (Figures S2 and S3).
(§3) The methods employed for PTP overexpression and purification have been described in a previous study. In brief, human PTPN9 and DUSP9 were cloned into a pET28a vector (Merk Millipore, Darmstadt, Germany) containing a hexahistidine (His6) tag or a maltose-binding protein (MBP) tag in its N-terminus (see Supplementary Materials). Recombinant genes were separately transformed into Escherichia coli Rosetta (DE3) (Merk Millipore, Darmstadt, Germany), and the overexpression of each gene was induced via the addition of 0.1 mM IPTG (Ducherfa Biochemie, Haarlem, RV, USA). After 16 h of incubation at 18 °C, cell pellets were obtained via centrifugation (3570× g at 4 °C for 15 min), resuspended in lysis buffer (50 mM Tris, pH: 7.5, 500 mM NaCl, 5% glycerol, 0.025% 2-mercaptoethanol, and 1 mM phenyl-methylsulfonyl fluoride (PMSF)), and lysed by ultrasonication. Subsequently, cell lysates were centrifuged at 29,820× g for 30 min at 4 °C; then, the supernatant was collected and incubated with a cobalt affinity resin (TALON® Metal Affinity Resin, Takara Korea, Seoul, Korea). After 1 h of incubation at 4 °C, the desired proteins were eluted by adding the lysis buffer supplemented with 100 mM imidazole. Samples were stored at –80 °C until use.
(§4) The enzymatic activities of purified PTPN9 and DUSP9 were measured using 6,8-difluoro-4-methylumbelliferyl phosphate (DiFMUP), the most widely used fluorogenic PTP substrate in the literature. To determine KM values, PTPN9 (0.15 nM) and DUSP9 (200 nM) were added to a reaction buffer (20 mM Bis-tris, pH: 7.0, 150 mM NaCl, 2.5 mM dithiothreitol (DTT), and 0.01% Triton X-100) containing DiFMUP (800, 400, 200, 100, 50, 25, 12.5, or 6.25 μM) in a 96-well black plate. The final reaction volume was 100 µL. The fluorescence intensity was continuously monitored for 10 min (Ex/Em = 355/460 nm) on a Victor™ X4 multilabel plate reader (Perkin Elmer, Norwalk, CT, USA). KM values were obtained using Lineweaver–Burk plots analysis.
(§5) To evaluate the enzyme inhibitory effects of GA and its analogs, 10 µl of the enzyme stock solution (1.5 nM PTPN9 and 2 µM DUSP9) in the reaction buffer was added into the mixture of DiFMUP (to a final concentration of 220 µM and 90 µM for PTPN9 and DUSP9, respectively) and each compound (to a final concentration of 50 µM and 20 µM for PTPN9 and DUSP9, respectively) was added to the reaction buffer. Enzyme activity was measured as described above. Half-inhibitory concentration (IC50) values were determined under similar conditions, except for the concentrations of the inhibitors (200, 100, 50, 25, 12.5, 6.25, or 3.125 µM for PTPN9 and 25, 12.5, 6.25, 3.125, 1.563, 0.782, or 0.391 µM for DUSP9). The dose-dependent curve was fitted to the four-parameter logistic regression equation, (y = a + (b – a)/(1 + (x/c)^d), to obtain IC50 values using the Kaleida Graph software Ver. 4.1.3. (Synergy Software Inc, PA, USA).

The target of assay [2] is T2, DUSP9 (Homo sapiens, UniProt Q99956).
T2 construct: made in house; host or cells: Escherichia coli Rosetta (DE3)
T2 sequence (Q99956 1-384): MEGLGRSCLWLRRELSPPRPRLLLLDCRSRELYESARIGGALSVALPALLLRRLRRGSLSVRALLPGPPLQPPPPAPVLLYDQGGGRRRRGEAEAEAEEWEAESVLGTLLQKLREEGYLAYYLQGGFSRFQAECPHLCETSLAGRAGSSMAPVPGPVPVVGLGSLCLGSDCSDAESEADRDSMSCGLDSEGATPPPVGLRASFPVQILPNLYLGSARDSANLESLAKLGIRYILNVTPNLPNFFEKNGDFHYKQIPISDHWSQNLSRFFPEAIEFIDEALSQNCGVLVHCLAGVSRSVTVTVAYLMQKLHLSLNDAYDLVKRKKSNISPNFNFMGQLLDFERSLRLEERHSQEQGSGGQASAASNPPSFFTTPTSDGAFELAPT
The assay is described as follows: DUSP9 enzyme inhibition with DiFMUP substrate. The assay is classed as biochemical. As to conditions: DiFMUP 90 µM, DUSP9 200 nM; NA: no activity. As to the method: as §1, §2, §3, §4, §5

The target in assay [3] is T2, DUSP9. The assay is described as follows: Kinetics of DiFMUP hydrolysis by DUSP9. It counts as biochemical. The note with it: [E] 200.0 nM. As to the method:
(§6) The purification and kinetic analyses of PTPN9 and DUSP9 (Ser277–581) were performed following methods described in the literature, with slight modifications. […] Enzyme activity in the presence or absence of the compounds was measured using DiFMUP, a representative PTP fluorogenic substrate.
as §4

For assay [4], the target named is T1, PTPN9. The assay can be described thus: Kinetics of DiFMUP hydrolysis by PTPN9. It counts as biochemical. The note with it: [E] 0.15 nM. As to the method:
as §6, §4

In assay [5] the test system is 3T3-L1 adipocytes. The assay can be described thus: 2-NBDG glucose uptake assay in differentiated 3T3-L1 adipocytes. The assay is classed as cell-based, mouse. The note with it: 100 nM. As to the method:
PTPN9 inhibitors have been reported to increase glucose uptake. To clarify the antidiabetic effects of GA analogs, a 2-NBDG (a fluorescent glucose probe) uptake assay was performed using differentiated 3T3-L1 adipocytes and C2C12 myotubes. After 16 h of starvation, differentiated 3T3-L1 adipocytes were incubated with compounds 1e and 1f for another 1 h. The cells were subsequently incubated with 2-NBDG for 30 min and washed with PBS before quantifying the fluorescence of 2-NBDG taken up by the cells. The 2-NBDG uptake-increasing effects of GA and its analogs in 3T3-L1 cells were monitored via confocal microscopy. The blank group was set in the absence of 2-NBDG but was treated with DMSO to determine the basal fluorescence levels in 3T3-L1 adipocytes (Figure 4A, Basal); in the negative control group, 3T3-L1 adipocytes were treated with 2-NBDG and DMSO for the evaluation of basal glucose uptake levels (Figure 4A, DMSO). […] Furthermore, to quantify 2-NBDG uptake, fluorescence intensity (Ex/Em = 485/535 nm) was measured using a plate reader. […] After incubation, the cells were washed with pre-cold PBS, and the fluorescence intensity was measured using a fluorescence microplate reader (Victor^TM X4, PerkinElmer, Waltham, MA, USA) (Ex/Em = 485/535 nm). […]

In the case of `CCCCCCCCCCCOc1cccc(O)c1C(=O)O` [Compound 1c], the IC50 in assay [1] is 77.1 ± 0.78 µM; in assay [2] it was 23.9 ± 0.65 µM.

On to `CCCCCCCCCCCCOc1cccc(O)c1C(=O)O` [Compound 1d], for which the IC50 in assay [1] stood at 28.54 ± 0.1 µM; in assay [2], 8.61 ± 0.66 µM.

Regarding `CCCCCCCCCCCCCOc1ccc(C(=O)O)c(O)c1` [Compound 2], the half-inhibitory concentration (IC50) is 69.3 ± 6.22 µM in assay [1] and 5.27 ± 0.07 µM in assay [2].

Take `CCCCCCCCCCCCCOc1ccc(O)c(C(=O)O)c1` [Compound 3]: the figures for the IC50 in assay [1] and in assay [2] were 36.5 ± 1 µM and 4.68 ± 0.06 µM, respectively.

Turning to `Cc1cc(=O)oc2c(F)c(OP(=O)(O)O)c(F)cc12` [DiFMUP, 6,8-difluoro-4-methylumbelliferyl phosphate], in assay [3], the Michaelis-Menten constant (Km) came out at 45 µM, the Vmax worked out at 1.65 μMmin-1 and the kcat is 0.138 s⁻¹. Besides, in assay [4], the Km was found to be 110 µM and the Vmax was found to be 1.73 μMmin-1.

On to “Insulin: positive control (100 nM) in the 2-NBDG uptake assay”, for which the “2-NBDG uptake (positive control)” value in assay [5] is “significantly stimulated 2-NBDG uptake”.

For orientation: IC50 means the concentration that gives 50% inhibition. A word on the Km: it is the concentration of substrate that gives half-maximal velocity. Broadly, the kcat is the maximal rate divided by the concentration of active sites.
